{
  "source": "patent US20210161807A1",
  "about": "“IMPLANTABLE DEVICE FOR LOCALIZED DRUG DELIVERY, USES AND MANUFACTURING METHOD THEREOF” (FONDAZIONE ISTITUTO ITALIANO DI TECNOLOGIA, priority 2018, published 2021)",
  "test": "Release of docetaxel from the polymer matrix of the device",
  "assay_type": "physicochemical",
  "conditions": "Docetaxel incorporated in the polymer matrix in the form of powder",
  "source_text": "The selected active ingredient may be appropriately incorporated into the polymer matrix in a form suitable for obtaining a prolonged release of the main active ingredient itself, without affecting the pharmacological activity thereof. For example, the Docetaxel incorporated in the polymer matrix in the form of powder is released up to 60 days after implantation. Longer release times may be easily achieved by incorporating the active ingredient, instead of in the form of powder, in its co-crystalline form. This solid form reduces the rate of dissolution, which is a necessary prerequisite for subsequent diffusion into the space surrounding the implanted device, […].\nTo study the release profile, the μMESH device and the FLAT counterpart thereof were incubated in 1 ml of phosphate buffered saline (PBS), to mimic and maximize the volume of liquid to which the devices may be exposed in a local application. At different times, the solution was centrifuged at 5000 rpm for 10 min and the supernatant was analyzed using the protocol described above. The results are expressed as a percentage of the cumulative release over time of three samples for each type of device.",
  "data": [
    {"smiles": "CC(=O)O[C@@]12CO[C@@H]1C[C@H](O)[C@@]1(C)C(=O)[C@H](O)C3=C(C)[C@@H](OC(=O)[C@H](O)[C@@H](NC(=O)OC(C)(C)C)c4ccccc4)C[C@@](O)([C@@H](OC(=O)c4ccccc4)[C@H]21)C3(C)C", "note": "[Docetaxel]", "values": [
      {"measurement": "release time of active ingredient after implantation", "result": "up to 60 days"}
    ]}
  ]
}
